Measured values reported in ChEMBL document CHEMBL4184305, “Inhibition of histone lysine methyltransferases G9a and GLP by ejection of structural Zn(II)” (Bioorg Med Chem Lett, 2018).
Counter-ions that a name gives are not always drawn. The source made the active and inactive calls. No cut-off for these calls is given here.

Experiments:
[1] = target: T1, Histone-lysine N-methyltransferase EHMT2 (Homo sapiens) (UniProt Q96KQ7); experiment: (§1) Inhibition of wild type recombinant human histone lysine methyltransferase G9a (913 to 1193 residues) expressed in Escherichia coli Rosetta BL21 DE3 PlysS at 10 uM using ARTKQTARKSTGGKA as substrate preincubated for 5 mins followed by substrate/SAM addition measured after 60 mins by MALDI-TOF MS analysis
T1 sequence (whole entry): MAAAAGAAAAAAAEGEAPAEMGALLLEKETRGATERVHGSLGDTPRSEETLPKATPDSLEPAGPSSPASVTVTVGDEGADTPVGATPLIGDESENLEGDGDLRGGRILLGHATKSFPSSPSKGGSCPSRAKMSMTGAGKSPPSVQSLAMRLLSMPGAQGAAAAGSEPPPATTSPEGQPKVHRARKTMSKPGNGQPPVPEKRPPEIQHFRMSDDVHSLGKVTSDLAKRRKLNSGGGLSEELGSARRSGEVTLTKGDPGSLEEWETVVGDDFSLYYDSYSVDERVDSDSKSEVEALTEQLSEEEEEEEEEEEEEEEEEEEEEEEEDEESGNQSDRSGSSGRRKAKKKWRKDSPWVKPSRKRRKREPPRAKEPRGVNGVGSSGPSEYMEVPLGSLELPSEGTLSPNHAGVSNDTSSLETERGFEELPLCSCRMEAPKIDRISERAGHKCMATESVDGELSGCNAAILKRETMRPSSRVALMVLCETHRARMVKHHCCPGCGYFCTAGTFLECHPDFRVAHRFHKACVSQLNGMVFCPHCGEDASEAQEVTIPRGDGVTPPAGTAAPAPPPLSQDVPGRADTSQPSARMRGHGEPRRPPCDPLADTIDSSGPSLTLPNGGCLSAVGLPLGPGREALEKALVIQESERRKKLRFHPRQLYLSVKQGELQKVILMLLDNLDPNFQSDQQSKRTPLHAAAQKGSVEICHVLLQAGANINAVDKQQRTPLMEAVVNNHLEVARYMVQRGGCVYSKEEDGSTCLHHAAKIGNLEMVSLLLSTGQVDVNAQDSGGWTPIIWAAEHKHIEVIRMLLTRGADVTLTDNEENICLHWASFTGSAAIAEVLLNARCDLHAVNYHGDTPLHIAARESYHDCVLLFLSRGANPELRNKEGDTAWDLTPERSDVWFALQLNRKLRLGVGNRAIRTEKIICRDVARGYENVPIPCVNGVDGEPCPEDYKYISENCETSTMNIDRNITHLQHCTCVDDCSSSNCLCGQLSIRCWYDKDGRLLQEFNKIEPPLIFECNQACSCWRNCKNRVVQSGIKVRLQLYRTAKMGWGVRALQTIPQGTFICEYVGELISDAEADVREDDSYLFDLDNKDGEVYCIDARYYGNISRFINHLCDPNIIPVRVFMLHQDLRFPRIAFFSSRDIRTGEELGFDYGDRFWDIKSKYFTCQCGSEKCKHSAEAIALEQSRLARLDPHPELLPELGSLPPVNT

[2] = target: T2, Histone-lysine N-methyltransferase EHMT1 (Homo sapiens) (UniProt Q9H9B1); experiment: Inhibition of wild type recombinant human histone lysine methyltransferase GLP (951 to 1235 residues) expressed in Escherichia coli Rosetta BL21 DE3 PlysS assessed as zinc ions ejection from Cys4-Zn finger at 100 uM by FluoZin-3 based fluorescence assay
T2 sequence (whole entry): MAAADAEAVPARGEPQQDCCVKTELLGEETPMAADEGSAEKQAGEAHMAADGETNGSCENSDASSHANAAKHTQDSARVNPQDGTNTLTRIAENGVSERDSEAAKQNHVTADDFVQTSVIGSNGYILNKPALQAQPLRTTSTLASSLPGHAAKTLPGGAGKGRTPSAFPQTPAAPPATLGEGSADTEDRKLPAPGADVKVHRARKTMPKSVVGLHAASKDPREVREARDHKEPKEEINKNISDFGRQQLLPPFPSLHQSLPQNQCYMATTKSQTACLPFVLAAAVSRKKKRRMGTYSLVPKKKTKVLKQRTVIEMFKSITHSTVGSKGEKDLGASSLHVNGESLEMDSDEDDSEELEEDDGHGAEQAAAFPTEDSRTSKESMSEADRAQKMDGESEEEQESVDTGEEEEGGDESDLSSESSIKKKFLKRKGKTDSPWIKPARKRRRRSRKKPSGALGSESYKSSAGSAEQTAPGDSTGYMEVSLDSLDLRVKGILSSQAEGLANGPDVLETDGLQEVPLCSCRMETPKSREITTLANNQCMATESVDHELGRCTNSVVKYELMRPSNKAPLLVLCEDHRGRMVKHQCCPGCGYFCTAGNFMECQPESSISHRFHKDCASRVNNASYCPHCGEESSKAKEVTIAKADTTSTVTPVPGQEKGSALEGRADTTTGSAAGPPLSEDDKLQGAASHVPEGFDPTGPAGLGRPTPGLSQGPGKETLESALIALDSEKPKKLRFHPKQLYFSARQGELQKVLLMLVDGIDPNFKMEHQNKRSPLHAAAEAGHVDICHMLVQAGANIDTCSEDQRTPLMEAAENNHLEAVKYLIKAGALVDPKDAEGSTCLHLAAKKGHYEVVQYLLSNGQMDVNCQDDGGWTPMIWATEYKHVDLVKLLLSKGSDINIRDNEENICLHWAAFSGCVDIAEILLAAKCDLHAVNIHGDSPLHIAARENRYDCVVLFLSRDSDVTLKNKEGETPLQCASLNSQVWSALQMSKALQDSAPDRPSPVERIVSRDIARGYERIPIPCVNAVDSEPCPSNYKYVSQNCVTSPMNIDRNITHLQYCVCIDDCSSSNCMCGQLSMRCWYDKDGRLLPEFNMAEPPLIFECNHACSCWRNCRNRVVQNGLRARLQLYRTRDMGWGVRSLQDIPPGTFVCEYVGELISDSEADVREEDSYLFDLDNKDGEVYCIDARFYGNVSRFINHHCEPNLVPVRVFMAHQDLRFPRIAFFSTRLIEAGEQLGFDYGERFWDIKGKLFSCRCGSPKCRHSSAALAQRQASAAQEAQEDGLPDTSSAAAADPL

[3] = target: T1, Histone-lysine N-methyltransferase EHMT2 (Homo sapiens); experiment: as §1, with “100” for “10”
[4] = target: T1, Histone-lysine N-methyltransferase EHMT2 (Homo sapiens); experiment: Inhibition of wild type recombinant human histone lysine methyltransferase G9a (913 to 1193 residues) expressed in Escherichia coli Rosetta BL21 DE3 PlysS assessed as zinc ions ejection from Cys4-Zn finger at 100 uM by FluoZin-3 based fluorescence assay
[5] = target: T2, Histone-lysine N-methyltransferase EHMT1 (Homo sapiens); experiment: as §1, with “GLP (951” for “G9a (913”, “1235” for “1193”, “100” for “10”
[6] = target: T3, Histone-lysine N-methyltransferase EHMT2 (Homo sapiens, UniProt Q96KQ7); experiment: Inhibition of wild type recombinant human histone lysine methyltransferase G9a (913 to 1193 residues) expressed in Escherichia coli Rosetta BL21 DE3 PlysS using ARTKQTARKSTGGKA as substrate preincubated for 5 mins followed by substrate/SAM addition measured after 60 mins by MALDI-TOF MS analysis
T3 sequence (Q96KQ7 whole entry): T1 sequence (whole entry)

[7] = target: T4, Histone-lysine N-methyltransferase EHMT1 (Homo sapiens, UniProt Q9H9B1); experiment: (§2) Inhibition of wild type recombinant human histone lysine methyltransferase GLP (951 to 1235 residues) expressed in Escherichia coli Rosetta BL21 DE3 PlysS using ARTKQTARKSTGGKA as substrate preincubated for 5 mins followed by substrate/SAM addition measured after 60 mins by MALDI-TOF MS analysis
T4 sequence (Q9H9B1 whole entry): T2 sequence (whole entry)

[8] = target: T2, Histone-lysine N-methyltransferase EHMT1 (Homo sapiens); experiment: as §2, with “PlysS at 10 uM” for “PlysS”

Row | SMILES | inhibition [1] | inhibition [2] | inhibition [3] | inhibition [4] | inhibition [5] | IC50 [6] | IC50 [7] | inhibition [8]
1 | c1ccc(SSc2ccccn2)nc1 | inactive | Active | > 50% | Active | > 50% | 650 nM | 2700 nM | inactive
2 | O=C1c2ccccc2C(=O)C1(O)O | inactive | Active | – | Active | 40% | 54000 nM | > 100000 nM | inactive
3 | c1ccc([Se][Se]c2ccccc2)cc1 | inactive | Active | > 50% | Active | > 50% | 550 nM | 860 nM | inactive
4 | Cl[Se]c1ccccc1 | inactive | Active | > 50% | Active | > 50% | 1200 nM | 1100 nM | inactive
5 | Br[Se]c1ccccc1 | inactive | Active | > 50% | Active | > 50% | 790 nM | 1500 nM | inactive
6 | O=C1c2ccccc2C(=O)N1[Se]c1ccccc1 | inactive | Active | > 50% | Active | > 50% | 450 nM | 1000 nM | inactive
7 | COc1cc2c(NC3CCN(C(C)C)CC3)nc(C3CCCCC3)nc2cc1OCCCN1CCCC1 | – | Active | – | Active | – | – | – | –
8 | C[S+](C)[O-] | – | Active | – | Active | – | – | – | –
9 | O=C1c2ccccc2C(=O)c2ccccc21 [ANTHRAQUINONE] | inactive | Active | 20% | Active | 20% | > 100000 nM | > 100000 nM | inactive
10 | O=[Se](O)c1ccccc1 [BENZENE SELENOIC ACID] | inactive | Active | > 50% | Active | > 50% | 4400 nM | 4900 nM | inactive
11 | NCCSSCCN [CYSTAMINE DIHYDROCHLORIDE] | inactive | Active | – | Active | – | 15000 nM | > 100000 nM | inactive
12 | NCCS [CYSTEAMINE] | inactive | Active | – | Active | – | > 100000 nM | > 100000 nM | inactive
13 | CCN(CC)C(=S)S [DITIOCARB SODIUM] | inactive | Active | > 50% | Active | > 50% | 9200 nM | 81000 nM | inactive
14 | NC(=O)/N=N/C(N)=O [E927A] | inactive | Active | > 50% | Active | > 50% | 500 nM | 1700 nM | inactive
15 | N[C@@H](CCC(=O)N[C@@H](CS)C(=O)NCC(=O)O)C(=O)O [GLUTATHIONE] | inactive | Active | – | Active | – | > 100000 nM | > 100000 nM | inactive
16 | O=C1C=CC(=O)c2ccccc21 [NAPHTHOQUINONE] | inactive | Active | > 50% | Active | > 50% | 2000 nM | 14000 nM | inactive
17 | O=[Se](=O)(O)O [SODIUM SELENATE] | inactive | Active | 10% | Active | 10% | > 100000 nM | > 100000 nM | inactive
18 | CN(C)C(=S)SSC(=S)N(C)C [THIRAM] | inactive | Active | > 50% | Active | > 50% | 550 nM | 1100 nM | inactive
